Measured values reported in US10316017B2, “COT modulators and methods of use thereof” (Gilead Sciences, Inc., priority 2015, dated 2019).
Read-outs that look alike come from different tables or passages of the source.

What was measured:
[1] = tested on: TNFα production in LPS-stimulated human monocytes; experiment: Cot Monocyte TNFα Cell Based Assay; details: Homo sapiens, Monocyte, read-out: EC50 TNF
Procedure, shortened: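 Human monocytes (5,000 cells/well) pretreated with compound for 1 hour at 37° C (0.5% DMSO), then stimulated with 50 pg/ml LPS for 4 hours. Total TNFα measured by TR-FRET after overnight antibody incubation at room temp, expressed as percent of control between unstimulated and stimulated cells.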

[2] = biological target: T1, human Cot catalytic domain (30-397 amino acids) (Homo sapiens, UniProt P41279); experiment: High Throughput Cot Biochemical Assay (KinEASE TR-FRET); details: read-out: IC50 HTRF
T1 construct: Purified recombinant human Cot catalytic domain (30-397 amino acids) was purchased from Cama Biosciences; purchased Cama Biosciences (so in the source)
Procedure, shortened: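 Recombinant human Cot catalytic domain (aa 30-397), 5 nM, with 1 μM STK3 peptide and 400 μM ATP in MOPS pH 7.0 buffer with MgOAc, DTT, BSA, NP-40, glycerol, 0.1% DMSO. Phosphorylated XL665-peptide detected by Eu-[…] antibody TR-FRET.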

[3] = TNFα in LPS-stimulated human monocytes
[4] = Cot KinEASE TR-FRET (HTRF) biochemical assay, 400 μM ATP
[5] = Cot biochemical HTRF (KinEASE TR-FRET) assay

T1 sequence (P41279 30-397): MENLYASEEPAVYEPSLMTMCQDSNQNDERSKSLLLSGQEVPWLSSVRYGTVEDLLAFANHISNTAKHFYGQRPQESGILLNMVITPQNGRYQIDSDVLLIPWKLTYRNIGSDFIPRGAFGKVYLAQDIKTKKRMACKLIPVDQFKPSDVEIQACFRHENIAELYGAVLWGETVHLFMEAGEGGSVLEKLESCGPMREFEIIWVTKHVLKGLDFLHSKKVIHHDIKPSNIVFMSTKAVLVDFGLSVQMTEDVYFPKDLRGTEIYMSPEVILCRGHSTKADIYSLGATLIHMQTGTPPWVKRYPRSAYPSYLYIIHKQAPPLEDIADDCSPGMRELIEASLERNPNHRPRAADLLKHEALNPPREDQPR

EC50 [1, 3]	IC50 [2, 4]	IC50 [2, 5]	EC50 ([1]; LPS-stimulated human monocytes, TNFα TR-FRET)	IC50 ([2]; Cot KinEASE TR-FRET, 400 μM ATP)	SMILES
397 nM	28 nM	–	–	–	[2H][C@](Nc1cc(C2CC2)c2ncc(C#N)c(N[C@H](CC)c3ccccc3)c2c1)(c1ccc(F)cc1)c1cn(C2CC2)nn1 [Example 224, 8-cyclopropyl-6-(((S)-(1-cyclopropyl-1H-1,2,3-triazol-4-yl)(4-fluorophenyl)methyl-d)amino)-4-(((R)-1-phenylpropyl)amino)quinoline-3-carbonitrile]
140 nM	14 nM	–	–	–	[2H][C@](Nc1cc(C#N)c2ncc(C#N)c(N[C@H](CC)c3ccccc3)c2c1)(c1ccc(F)cc1)c1cn(C2(C(F)(F)F)CC2)nn1 [Example 132, 6-(((S)-(4-fluorophenyl) (1-(1-(trifluoromethyl)cyclopropyl)-1H-1,2,3-triazol-4-yl)methyl-d)amino)-4-(((R)-1-phenylpropyl)amino)quinoline-3,8-dicarbonitrile]
381 nM	–	10 nM	–	–	CC(C)(C)N1CCC(n2cc([C@@H](Nc3cc(Cl)c4ncc(C#N)c(Nc5ccc(F)c(Cl)c5)c4c3)c3ccccc3)nn2)CC1 [Example 831, (S)-6-(((1-(1-(tert-butyl)piperidin-4-yl)-1H-1,2,3-triazol-4-yl)(phenyl)methyl)amino)-8-chloro-4-((3-chloro-4-fluorophenyl)amino)quinoline-3-carbonitrile]
> 10000 nM	–	46 nM	–	–	CC(C)n1cc([C@@H](Nc2cc(Cl)c3ncc(C#N)c(Nc4ccc(F)c(Cl)c4)c3c2)c2cccc(CNCCN(C)C)c2)nn1 [Example 711, (S)-8-chloro-4-((3-chloro-4-fluorophenyl)amino)-6-(((3-(((2-(dimethylamino)ethyl)amino)methyl)phenyl)(1-isopropyl-1H-1,2,3-triazol-4-yl)methyl)amino)quinoline-3-carbonitrile]
3990 nM	–	72 nM	–	–	CN(C)Cc1ccccc1[C@H](Nc1cc(Cl)c2ncc(C#N)c(Nc3ccc(F)c(Cl)c3)c2c1)c1cn(C2CCN(C(C)(C)C)CC2)nn1 [Example 720, (S)-6-(((1-(1-(tert-butyl)piperidin-4-yl)-1H-1,2,3-triazol-4-yl)(2-((dimethylamino)methyl)phenyl)methyl)amino)-8-chloro-4-((3-chloro-4-fluorophenyl)amino)quinoline-3-carbonitrile]
–	–	–	86 nM	12 nM	[2H][C@@](Nc1cc(Cl)c2ncc(C#N)c(NCC(C)(C)C)c2c1)(c1cn(C2(c3cccnc3)CC2)nn1)c1ccccc1Cl [Example 960, 8-chloro-6-(((2-chlorophenyl)(1-(1-(pyridin-3-yl)cyclopropyl)-1H-1,2,3-triazol-4-yl)methyl-d)amino)-4-(neopentylamino)quinoline-3-carbonitrile]
469 nM	24 nM	–	–	–	N#Cc1cnc2c(Cl)cc(N[C@H](c3cn(C4CC4)nn3)c3cccc(Cl)c3Cl)cc2c1Nc1cnc(F)c(F)c1 [Example 293, (S)-8-chloro-6-(((1-cyclopropyl-1H-1,2,3-triazol-4-yl)(2,3-dichlorophenyl)methyl)amino)-4-((5,6-difluoropyridin-3-yl)amino)quinoline-3-carbonitrile]
343 nM	–	11 nM	–	–	CC(C)(C)N1CCC(n2cc([C@@H](Nc3cc(C#N)c4ncc(C#N)c(Nc5ccc(F)c(Cl)c5)c4c3)c3ccc(Cl)cc3)nn2)CC1 [Example 689, (S)-6-(((1-(1-(tert-butyl)piperidin-4-yl)-1H-1,2,3-triazol-4-yl)(4-chlorophenyl)methyl)amino)-4-((3-chloro-4-fluorophenyl)amino)quinoline-3,8-dicarbonitrile]
330 nM	26 nM	–	–	–	CC[C@@H](Nc1c(C#N)cnc2c(Cl)cc(N[C@H](c3cn(C4(C#N)CC4)nn3)c3ccccc3Cl)cc12)c1ccccc1 [Example 49, 8-chloro-6-(((S)-(2-chlorophenyl)(1-(1-cyanocyclopropyl)-1H-1,2,3-triazol-4-yl)methyl)amino)-4-(((R)-1-phenylpropyl)amino) quinoline-3-carbonitrile]
